Measurements: patent US20100022521A1, “COMPOUNDS” (Hansa Metallwerke AG, priority 2005, published 2010)
pKi: −log10 of the molar value.

Assays:
mGluR5 = mGluR5 (UniProt P31424); assay: MGluR5 receptor binding test ([3H]-M-MPEP displacement); set-up: species or system rat; details: radioligand [3H]-M-MPEP (2 nM); species not given; read-out: mGlu5 Ki
Protocol: MGluR5 Receptor Binding Tests
Rat cerebro-cortical membrane preparation was used to determine the binding characteristics of reference compounds and novel compounds to the rat mGluR5. The A18 cell line expressing hmGluR5a (purchased from Euroscreen) was used to determine binding characteristics of the chemical compounds to the human mGluR5a receptor. As radioligand [3H]-M-MPEP (2 nM) was used. The nonspecific binding was determined in the presence of 10 μM M-MPEP.

rat mGluR1 = target: T1, rat mGluR1 (Rattus norvegicus, UniProt P23385); assay: MGluR1 receptor binding test ([3H]R214127 displacement); details: rat cerebellar membrane; radioligand [3H]R214127 (3 nM); read-out: mGlu1 Ki
T1 construct: rat cerebellar membrane preparation was used; from tissue; host or cells: rat cerebellum (membrane preparation)
Protocol: MGluR1 Receptor Binding Test
MGluR1 receptor binding testes were performed according to modified method of Lavreysen et al. (Mol. Pharm., 2003, 63, 1082). Based on the high homology between the human and rat mGluR1 receptors, rat cerebellar membrane preparation was used to determine the binding characteristics of reference compounds and novel compounds to the rat mGluR1. As radioligand [3H]R214127 (3 nM) was used and the nonspecific binding was determined in the presence of 1 μM of R214127.
IC-50 values were determined from displacement curves by nonlinear regression analysis and were converted by equation method of Cheng and Prusoff (Biochem. Pharmacol., 1973, 22, 3099) to Ki values.

T1 sequence (P23385 19-1199): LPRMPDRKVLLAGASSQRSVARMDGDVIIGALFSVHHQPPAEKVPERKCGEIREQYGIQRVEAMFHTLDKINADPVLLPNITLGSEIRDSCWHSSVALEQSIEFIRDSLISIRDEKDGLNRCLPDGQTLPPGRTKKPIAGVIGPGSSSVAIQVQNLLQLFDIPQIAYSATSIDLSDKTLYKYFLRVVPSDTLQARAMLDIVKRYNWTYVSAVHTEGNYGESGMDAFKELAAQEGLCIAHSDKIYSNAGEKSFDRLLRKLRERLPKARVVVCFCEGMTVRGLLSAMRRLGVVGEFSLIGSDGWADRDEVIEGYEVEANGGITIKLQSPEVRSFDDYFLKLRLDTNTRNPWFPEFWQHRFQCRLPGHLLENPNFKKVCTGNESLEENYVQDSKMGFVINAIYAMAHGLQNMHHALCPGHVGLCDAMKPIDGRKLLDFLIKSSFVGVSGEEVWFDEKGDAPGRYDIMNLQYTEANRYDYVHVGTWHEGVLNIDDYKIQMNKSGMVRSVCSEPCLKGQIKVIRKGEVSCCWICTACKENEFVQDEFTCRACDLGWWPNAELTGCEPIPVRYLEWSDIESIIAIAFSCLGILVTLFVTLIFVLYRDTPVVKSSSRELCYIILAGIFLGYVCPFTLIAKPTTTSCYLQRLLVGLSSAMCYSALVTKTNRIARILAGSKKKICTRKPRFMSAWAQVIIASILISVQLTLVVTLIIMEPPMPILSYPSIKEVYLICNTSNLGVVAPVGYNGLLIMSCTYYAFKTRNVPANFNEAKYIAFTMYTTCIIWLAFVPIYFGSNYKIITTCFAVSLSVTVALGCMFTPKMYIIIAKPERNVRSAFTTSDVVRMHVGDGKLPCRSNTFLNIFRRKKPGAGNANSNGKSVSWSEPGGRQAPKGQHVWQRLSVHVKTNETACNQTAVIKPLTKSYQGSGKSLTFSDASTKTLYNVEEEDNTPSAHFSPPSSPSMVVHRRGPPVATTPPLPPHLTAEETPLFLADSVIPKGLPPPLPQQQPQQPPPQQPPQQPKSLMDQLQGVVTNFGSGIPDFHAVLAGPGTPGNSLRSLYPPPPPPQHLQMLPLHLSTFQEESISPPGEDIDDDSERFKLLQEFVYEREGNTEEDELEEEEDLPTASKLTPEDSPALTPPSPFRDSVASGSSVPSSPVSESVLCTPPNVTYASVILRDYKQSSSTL

SMILES	pKi (mGluR5)	pKi (rat mGluR1)
CC1CCN(c2c(S(=O)(=O)c3cccc(C#N)c3)sc3ncccc23)CC1 [Compound 36, 2-(3-Cyano-benzenesulfonyl)-3-(4-methyl-piperidinyl)-thieno[2,3-b]pyridine]	> 6.30	> 6.30
O=S(=O)(NCc1ccc(Cl)cc1)c1sc2ncccc2c1-c1ccc(Cl)cc1 [Compound 21, 3-(4-Chlorophenyl)-thieno[2,3-b]pyridine-2-sulfonic acid 4-chloro-benzylamide]	< 5.82	< 5.82
Cc1ccc(-c2c(S(=O)(=O)c3ccc(Cl)cc3)sc3ncccc23)cc1 [Compound 35]	> 6.30	< 5.82
O=S(=O)(Nc1ccc(Cl)cc1)c1sc2ncccc2c1-c1ccc(Cl)cc1 [Compound 15, 3-(4-Chlorophenyl)-thieno[2,3-b]pyridine-2-sulfonic acid (4-chloro-phenyl)-amide]	5.82 to 6.30	< 5.82
COc1ccc(S(=O)(=O)c2sc3ncccc3c2-c2ccc(Cl)cc2)cc1F [Compound 91]	> 6.30	5.82 to 6.30
Cc1cccc(-c2c(S(=O)(=O)c3cccc(C#N)c3)sc3ncccc23)c1 [Compound 53]	> 6.30	5.82 to 6.30
O=S(=O)(c1cccnc1)c1sc2ncccc2c1-c1ccc(Cl)cc1 [Compound 10]	> 6.30	< 5.82
N#Cc1cccc(S(=O)(=O)c2sc3ncccc3c2-c2ccccc2Cl)c1 [Compound 83]	> 6.30	> 6.30
O=S(=O)(c1ccc(Cl)cc1)c1sc2ncccc2c1-c1ccc(Cl)cc1 [Compound 1, 2-(4-Chloro-benzenesulfonyl)-3-(4-chloro-phenyl)-thieno[2,3-b]pyridine]	> 6.30	< 5.82
O=S(=O)(c1sc2ncccc2c1-c1ccc(Cl)cc1)C1CCCCC1 [Compound 16]	< 5.82	< 5.82
O=S(=O)(c1ccc(Cl)cc1Cl)c1sc2ncccc2c1-c1ccc(Cl)cc1 [Compound 33]	5.82 to 6.30	< 5.82
N#Cc1cc(F)cc(S(=O)(=O)c2sc3ncccc3c2-c2ccc(Cl)cc2)c1 [Compound 40]	> 6.30	5.82 to 6.30
O=S(=O)(c1cccc(F)c1)c1sc2ncccc2c1-c1ccc(F)cc1 [Compound 78]	> 6.30	< 5.82
Cc1ccc(-c2c(S(=O)(=O)c3cccc(C#N)c3)sc3ncccc23)cc1 [Compound 59]	> 6.30	> 6.30
Cc1ccc(S(=O)(=O)c2sc3ncccc3c2-c2ccc(F)cc2)cc1F [Compound 82]	> 6.30	< 5.82
Cc1nc(C)c(S(=O)(=O)c2sc3ncccc3c2-c2ccc(Cl)cc2)s1 [Compound 12]	5.82 to 6.30	< 5.82
CN1CCN(c2c(S(=O)(=O)c3ccc(Cl)cc3)sc3ncccc23)CC1 [Compound 106]	> 6.30	–
Cc1cccc(S(=O)(=O)c2sc3ncccc3c2-c2ccc(F)cc2)c1 [Compound 61]	> 6.30	–
N#Cc1cc(F)cc(S(=O)(=O)c2sc3ncccc3c2-c2ccc(F)cc2)c1 [Compound 30]	> 6.30	–
N#Cc1cc(F)cc(S(=O)(=O)c2sc3nc(F)ccc3c2-c2cccc(F)c2)c1 [Compound 139]	> 6.30	–
Cc1ccc(-c2c(S(=O)(=O)c3ccc(C)cc3)sc3ncccc23)cc1 [Compound 27]	> 6.30	–

SMILES	pKi (mGluR5)	pKi (rat mGluR1)
Nc1cnc2sc(S(=O)(=O)c3ccc(Cl)cc3)c(-c3ccccc3F)c2c1 [Compound 131]	> 6.30	–
COc1ccc(-c2c(S(=O)(=O)c3cccc(C#N)c3)sc3ncccc23)cc1 [Compound 84]	> 6.30	–
O=S(=O)(c1ccc(Cl)cc1)c1sc2ncccc2c1-c1cccc(Cl)c1 [Compound 60]	> 6.30	–
O=S(=O)(c1ccc(Cl)cc1)c1sc2ncccc2c1-c1ccccc1F [Compound 114]	> 6.30	–
O=S(=O)(c1ccc(Cl)cc1)c1sc2ncccc2c1N1CCC(C(F)(F)F)CC1 [Compound 92]	> 6.30	–
N#Cc1cccc(S(=O)(=O)c2sc3nc(Cl)ccc3c2-c2ccc(Cl)cc2)c1 [Compound 51]	< 5.82	–
CC1CCN(c2c(S(=O)(=O)c3ccc(Cl)cc3)sc3ncc(O)cc23)CC1 [Compound 107]	> 6.30	–
O=S(=O)(c1ccc(Cl)cc1)c1sc2nc(F)ccc2c1-c1ccc(Cl)cc1 [Compound 58]	> 6.30	–
CN(C)c1c(S(=O)(=O)c2ccc(Cl)cc2)sc2ncccc12 [Compound 100]	> 6.30	–
O=S(=O)(c1cccc(F)c1)c1sc2nc(Cl)ccc2c1-c1ccc(Cl)cc1 [Compound 76]	5.82 to 6.30	–
N#CC1CCN(c2c(S(=O)(=O)c3ccc(Cl)cc3)sc3ncccc23)CC1 [Compound 93]	5.82 to 6.30	–
Cc1ccc(S(=O)(=O)c2sc3ncccc3c2-c2ccc(F)cc2)cc1C [Compound 24]	> 6.30	–
CS(=O)(=O)NC1CCN(c2c(S(=O)(=O)c3ccc(Cl)cc3)sc3ncccc23)CC1 [Compound 116]	< 5.82	–
CNC(=O)Nc1c(S(=O)(=O)c2ccc(Cl)cc2)sc2ncccc12 [Compound 112]	< 5.82	–
CC1CCN(c2c(S(=O)(=O)c3cc(F)cc(C#N)c3)sc3ncccc23)CC1 [Compound 96]	> 6.30	–
COc1ccc(S(=O)(=O)c2sc3ncccc3c2NC(=O)N2CCC(C)CC2)cc1 [Compound 120, N-[2-(4-methoxy-benzenesulfonyl)-thieno[2,3b]pyridin-3-yl]-4-methyl-piperidine-1-carboxamide]	< 5.82	–
N#Cc1ccc(-c2c(S(=O)(=O)c3cccc(C#N)c3)sc3ncccc23)cc1 [Compound 69]	> 6.30	–
COc1ccnc2sc(S(=O)(=O)c3ccc(Cl)cc3)c(-c3ccc(Cl)cc3)c12 [Compound 101, 2-(4-chloro-benzenesulfonyl)-3-(4-chloro-phenyl)-4-methoxy-thieno[2,3-b]pyridine]	> 6.30	–
Cc1cc(C)c(S(=O)(=O)c2sc3ncccc3c2-c2ccc(Cl)cc2)c(C)c1 [Compound 56]	< 5.82	–
CC(C)c1ccc(S(=O)(=O)c2sc3ncccc3c2-c2ccc(Cl)cc2)cc1 [Compound 88]	> 6.30	–

Now from value to molecule:

pKi (mGluR5)	pKi (rat mGluR1)	SMILES
> 6.30	> 6.30	Nc1cnc2sc(S(=O)(=O)c3ccc(Cl)cc3)c(-c3ccc(Cl)cc3)c2c1 [Compound 79, 2-(4-Chloro-benzenesulfonyl)-3-(4-chloro-phenyl)-thieno[2,3-b]pyridin-5-ylamine]
> 6.30	> 6.30	N#Cc1cccc(S(=O)(=O)c2sc3ncccc3c2-c2cccc(F)c2)c1 [Compound 52]
> 6.30	> 6.30	[O-][S+](c1ccc(Cl)cc1)c1sc2ncccc2c1-c1ccc(Cl)cc1 (centres unmarked) [Compound 2]
> 6.30	5.82 to 6.30	Cc1ccc(S(=O)(=O)c2sc3ncccc3c2-c2ccc(Cl)cc2)cc1 [Compound 4]
> 6.30	< 5.82	O=S(=O)(c1cccc(Cl)c1)c1sc2ncccc2c1-c1ccc(Cl)cc1 [Compound 19]
> 6.30	< 5.82	N#Cc1cccc(S(=O)(=O)c2sc3nc(F)ccc3c2-c2ccc(F)cc2)c1 [Compound 75]
> 6.30	< 5.82	O=S(=O)(c1ccccc1)c1sc2ncccc2c1-c1ccc(Cl)cc1 [Compound 8]
> 6.30	> 6.30	COc1ccc(S(=O)(=O)c2sc3ncccc3c2-c2ccc(Cl)cc2)cc1 [Compound 48]
5.82 to 6.30	< 5.82	O=S(=O)(c1cccs1)c1sc2ncccc2c1-c1ccc(Cl)cc1 [Compound 13]
> 6.30	–	O=S(=O)(c1ccc(Cl)cc1)c1sc2ncccc2c1-c1ccccc1Cl [Compound 113]
5.82 to 6.30	–	CN(C)c1ccc2c(-c3ccc(Cl)cc3)c(S(=O)(=O)c3ccc(Cl)cc3)sc2n1 [Compound 47, 2-(4-Chloro-benzenesulfonyl)-3-(4-chloro-phenyl)-6-dimethylamino-thieno[2,3-b]pyridine]
> 6.30	–	O=S(=O)(c1ccc(Cl)cc1)c1sc2ncccc2c1-c1ccc(F)cc1F [Compound 130]
> 6.30	–	COc1ccc(S(=O)(=O)c2sc3ncccc3c2-c2ccc(F)cc2)cc1F [Compound 126]
> 6.30	–	Cc1ccc(S(=O)(=O)c2sc3nc(Cl)ccc3c2-c2ccc(Cl)cc2)cc1F [Compound 81]
> 6.30	–	Cc1ccc(-c2c(S(=O)(=O)c3cccc(Cl)c3)sc3ncccc23)cc1 [Compound 37]
> 6.30	–	O=S(=O)(c1cccc(F)c1)c1sc2nc(F)ccc2c1-c1ccc(Cl)cc1 [Compound 77]
> 6.30	–	CC1CCN(c2c(S(=O)(=O)c3ccc(Cl)cc3)sc3nc(Cl)ccc23)CC1 [Compound 119]
> 6.30	–	Cc1ccc(S(=O)(=O)c2sc3ncccc3c2-c2ccc(Cl)cc2)cc1C [Compound 62]
< 5.82	–	CC(=O)N1CCN(c2c(S(=O)(=O)c3ccc(Cl)cc3)sc3ncccc23)CC1 [Compound 105]
> 6.30	–	O=S(=O)(c1cccc(F)c1)c1sc2ncccc2c1-c1ccc(Cl)cc1 [Compound 31]
> 6.30	–	O=S(=O)(c1cc(F)cc(C(F)(F)F)c1)c1sc2ncccc2c1-c1ccc(Cl)cc1 [Compound 34]
> 6.30	–	Cc1cccc(S(=O)(=O)c2sc3ncccc3c2-c2ccc(Cl)cc2)c1 [Compound 22]
< 5.82	–	CS(=O)(=O)c1ccc(-c2c(S(=O)(=O)c3ccc(Cl)cc3)sc3ncccc23)cc1 [Compound 108]
